In brackets after ≈: the same amount, converted by molar mass. Structures can show the parent of a compound that is named as a salt. Where two headings read alike, the source gives them in different places. *: point of attachment. Octanoyl = CCCCCCCC(=O)*
Assays:
[1] = test system: microbes such as Salmonella typhimurium and Clostridium botulinum; assay type: cell-based; settings: food preservative use
[2] = test system: E. coli; assay: Peptide-containing textile fiber, MIC; assay type: cell-based, Escherichia coli; settings: E. coli in LB media
Excerpt: Peptide compositions comprising peptides of the present invention and at least one biocide or germicide may be applied by coating or spinning effective amounts of peptide onto or into the desired polymer. The peptides may be prepared in an aqueous solution to use as a coating solution or combined with a polymer. […] A peptide and polymer solution or mixture may be made and undergo casting or formation to the desired shaped article, fiber or film. The shaped article, fiber or film may then be quenched in water or methanol, allowed to air dry or dry under an appropriate atmosphere to prevent oxidative reactions.
The resulting solution may be placed into a microscale spinning apparatus and fiber is formed while wet with methanol. The antimicrobial activity of the peptides may be tested in tubes containing LB media innoculated with the peptide-containing fiber and E. coli growing at log phase (1×10^6 to 1×10^7 cells/ml). Aliquots can be taken from the culture tube at periodic intervals and absorbance readings at 600 nm (uv/vis) can be measured in a microcuvette.

[3] = test system: P. aeruginosa ATCC 10145
[4] = test system: E. coli ATCC 25922
[5] = test system: S. cerevisiae ATCC 9763
[6] = test system: K. pneumoniae; assay: MIC of biocide actives and formulations, microtiter growth assay
[7] = test system: P. aeruginosa; assay: as above
[8] = test system: all organisms tested except P. aeruginosa; assay: Triclosan plus sub-biocidal peptide, summary over organisms; assay type: cell-based
Excerpt: Thus, the potential use rate of triclosan as an antimicrobial is reduced.

[9] = test system: microorganisms; assay: Triclosan plus sub-toxic levels of peptide on microbial growth; assay type: cell-based
Protocol: Effect of combinations of triclosan and sub-toxic levels of peptide on microbial growth is assessed. […] Thus, the potential use rate of triclosan as an antimicrobial is shown to be reduced.

[10] = test system: K. pneumoniae ATCC 27736
[11] = test system: C. albicans ATCC 10231
[12] = test system: S. aureus ATCC 33591 (MRSA)
[13] = test system: K. pneumoniae ATCC 27736; assay: microbe, parasite or virus in culture; settings: Klebsiella pneumoniae, ATCC27736, read-out: Triclosan MIC
[14] = test system: P. aeruginosa ATCC 10145; assay: microbe, parasite or virus in culture; settings: Pseudomonas aeruginosa, ATCC10145, read-out: Triclosan MIC
[15] = test system: C. albicans ATCC 10231; assay: microbe, parasite or virus in culture; settings: Candida albicans, ATCC10231, read-out: Triclosan MIC
[16] = test system: E. coli ATCC 25922; assay: microbe, parasite or virus in culture; settings: Escherichia coli, ATCC25922, read-out: Triclosan MIC
[17] = test system: S. cerevisiae ATCC 9763; assay: microbe, parasite or virus in culture; settings: Saccharomyces cerevisiae, ATCC9763, read-out: Triclosan MIC
[18] = test system: S. aureus ATCC 33591 (MRSA); assay: microbe, parasite or virus in culture; settings: Staphylococcus aureus, read-out: Triclosan MIC
[19] = K. pneumoniae, growth inhibited by >90%
[20] = P. aeruginosa, growth inhibited by >90%
[21] = triclosan MIC with octanoyl-RR-NH-octyl at 0.5 ppm
[22] = triclosan MIC with octanoyl-R-NH-octyl at 4 ppm

For Octanoyl-Arg-Trp-NH2, the MIC [1] was “≦15 μg/ml” and the MIC [2] was “≦15 μg/ml”.
In the case of “Acetyl-Arg-Trp-Arg-Trp-NH2 (Ac-RWRW-NH2)”, the MIC [1] is reported as “≦31 μg/ml” and the MIC [2] is reported as “≦31 μg/ml”.
For Decanoyl-Arg-NH-decyl, the MIC [1] was “≦8 μg/ml” and the MIC [2] was “≦15 μg/ml”.
For `CCCCCCCCNC(=O)[C@H](CCCNC(=N)N)NC(=O)CCCCCCC` [octanoyl-R-NH-octyl, octanoyl-R—NH-octyl], the “Peptide MIC” value ([3]; ATCC 10145, 19 h) was 8 µg/mL, the “Peptide MIC” value ([4]; ATCC 25922, 19 h) was 8 µg/mL and the “Peptide MIC” value ([5]; ATCC 9763, 19 h) was 8 µg/mL.
Work on `O=[N+]([O-])C(Br)(CO)CO` [Myacide, 2-bromo-2-nitropropane-1,3-diol] yielded an MIC ([6]; Klebsiella pneumoniae) of 10 µg/mL and an MIC ([7]; Pseudomonas aeruginosa) of 1.3 µg/mL.
Compound `N#CSCSC#N` [MBT, methylene bis(thiocyanate)] has an MIC [6, 19] of 0.6 µg/mL and an MIC [7, 20] of 0.6 µg/mL.
In the case of Octanoyl-Arg-Trp-Phe-NH2, the MIC [2] is reported as “≦15 μg/ml”.
For Nonanoyl-Arg-Arg-NH-nonyl, the MIC [2] was “≦2 μg/ml”.
For Octanoyl-Lys-Arg-NH-octyl, the MIC [1] was “≦4 μg/ml”.
For `Oc1cc(Cl)ccc1Oc1ccc(Cl)cc1Cl` [Triclosan, 2,4,4′-trichloro-2′-hydroxydiphenylether], the “inhibitory effect of triclosan on addition of sub-biocidal amounts of peptide” value [8] was “substantially increased”, the “inhibitory effect of triclosan with a peptide of the invention in sub-toxic amounts” value [9] was “substantially increase” and the “Triclosan plus constant [peptide]” value [10, 21] was 0.031 (0.5 ppm) μg/ml. For the same compound, the “Triclosan plus constant [peptide]” value ([10]; triclosan MIC with octanoyl-RR-NH-octyl at 1 ppm) was 0.00003 (1 ppm) μg/ml, the “Triclosan plus constant [peptide]” value [3, 22] was >250 (4 ppm) μg/ml and the “Triclosan plus constant [peptide]” value ([11]; triclosan MIC with octanoyl-RR-NH-octyl at 2 ppm) was 4 (2 ppm) μg/ml. For the same compound, the “Triclosan plus constant [peptide]” value ([11]; triclosan MIC with octanoyl-RR-NH-octyl at 4 ppm) was 2 (4 ppm) μg/ml, the “Triclosan plus constant [peptide]” value [4, 22] was <0.00003 (4 ppm) μg/ml and the “Triclosan plus constant [peptide]” value ([5]; triclosan MIC with octanoyl-R-NH-octyl at 2 ppm) was 2 (2 ppm) μg/ml. For the same compound, the “Triclosan plus constant [peptide]” value [12, 21] was 0.002 (0.5 ppm) μg/ml, the MIC [13] was 0.061 µg/mL (≈ 0.211 µM) and the MIC [14] was > 250 µg/mL. It also gave an MIC [15] of 8 µg/mL (≈ 27.6 µM), an MIC [16] of 0.002 µg/mL (≈ 0.00691 µM) and an MIC [17] of 4 µg/mL (≈ 13.8 µM). For the same compound, the MIC [18] was 0.015 µg/mL (≈ 0.0518 µM).
Compound `N#CC(Br)(Br)C(N)=O` [compound 7287, 2,2-dibromo-3-nitrilo propionamide] has an MIC [6, 19] of 40.0 µg/mL and an MIC [7, 20] of 40.0 µg/mL.
`CCCCCCCCCCCCNC(=N)N` [DGH, dodecylguanidine hydrochloride] showed an MIC ([6]; Klebsiella pneumoniae) of 2.5 µg/mL and an MIC ([7]; Pseudomonas aeruginosa) of 10 µg/mL.
With “n-alkyl (C12-40%, C14-50%, C16-10%) dimethylbenzylammonium chloride [Maquat]” the MIC [6, 19] was 0.6 µg/mL and the MIC [7, 20] was 7.8 µg/mL.
For “Octanoyl-Arg-Phe-Phe-Arg-NH-octyl (Octanoyl-RFFR-{NH‑octyl})”, the MIC [2] was “≦4 μg/ml”.
`O=CCCCC=O` [Aqucar, glutaraldehyde] showed an MIC ([6]; Klebsiella pneumoniae) of 250 µg/mL and an MIC ([7]; Pseudomonas aeruginosa) of 500 µg/mL.
Octanoyl-Arg-Ala-NH-octyl was tested, and the MIC [1] was “≦15 μg/ml”.
`CCCCCCCCNC(=O)[C@H](CCCNC(=N)N)NC(=O)[C@H](CCCNC(=N)N)NC(=O)CCCCCCC` [octanoyl-RR-NH-octyl, octanoyl-RR—NH-octyl] was tested, and the “Peptide MIC” value ([10]; ATCC 27736, 19 h) was 4 µg/mL, the “Peptide MIC” value ([11]; ATCC 10231, 19 h) was 8 µg/mL and the “Peptide MIC” value ([12]; ATCC 33591, 19 h) was 2 µg/mL.
In the case of Octanoyl-Arg-Arg-Arg-NH-octyl, the MIC [2] is reported as “≦8 μg/ml”.
For Octanoyl-Arg-Cys-NH-octyl, the MIC [1] was “≦15 μg/ml”.
With Nonanoyl-Arg-NH-nonyl the MIC [1] was “≦4 μg/ml”.
